Measured values published in patent publication US8426408B2, “Pyrimidine inhibitors of kinases” (AbbVie Inc., priority 2009, dated 2013).

Columns and labels:
Aurora B = target: T1, Aurora B (Homo sapiens, UniProt Q96GD4); assay: Aurora B enzyme inhibition (time-resolved fluorescence, histone H3 peptide); format: biochemical; conditions: 1 mM ATP
T1 construct: Active Aurora B enzyme (recombinant residues 1-344)
In short: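 Recombinant Aurora B (residues 1-344) with GST-INCENP phosphorylated biotinylated histone H3 (1-21) peptide at 1 mM ATP in HEPES pH 7.4 with MgCl2, orthovanadate and Triton X-100 for 1 h. After EDTA stop, the phosphopeptide was detected by TR-FRET (Eu-cryptate anti-phospho-H3 / SA-APC, 665/615 nm ratio). IC50 from an exponential fit.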

Aurora A = target: T2, Aurora A (Homo sapiens, UniProt O14965); assay: Aurora A enzyme inhibition (time-resolved fluorescence, STK substrate-2); format: biochemical; conditions: 1 mM ATP
T2 sequence (O14965 1-403): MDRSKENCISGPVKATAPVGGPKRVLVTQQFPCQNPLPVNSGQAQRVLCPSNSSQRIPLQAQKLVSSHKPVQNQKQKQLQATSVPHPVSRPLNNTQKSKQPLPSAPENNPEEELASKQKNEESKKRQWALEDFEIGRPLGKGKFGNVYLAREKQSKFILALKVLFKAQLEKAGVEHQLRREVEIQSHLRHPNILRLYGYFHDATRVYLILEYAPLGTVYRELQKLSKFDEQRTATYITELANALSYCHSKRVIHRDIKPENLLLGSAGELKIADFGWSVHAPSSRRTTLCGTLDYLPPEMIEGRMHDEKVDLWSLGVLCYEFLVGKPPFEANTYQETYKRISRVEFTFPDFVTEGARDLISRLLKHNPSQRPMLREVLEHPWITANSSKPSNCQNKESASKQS
In short: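 Active enzyme incubated 1 h with biotinylated STK substrate-2, 1 mM ATP and inhibitor in Hepes pH 7.4 with MgCl2, orthovanadate and Triton X-100. EDTA stop; phosphopeptide detected by Eu-cryptate anti-phospho-STK/SA-XL665 TR-FRET (665/615 nm ratio); IC50 by exponential fit.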

KDR [1] = target: T3, KDR (Homo sapiens, UniProt P35968); assay: KDR cellular assay (KDR receptor phosphorylation ELISA); format: cell-based; set-up: expressed in transfected cells; host or cells: 3T3 (embryonic mouse) cells; conditions: KDR transfected 3T3 (embryonic mouse) cells, VEGF stimulated; read-out: IC50 inhibition of KDR phosphorylation
Procedure: The ability of compounds to inhibit KDR receptor phosphorylation in cells was measured by ELISA following the protocol outlined below.
KDR transfected 3T3 (embryonic mouse) cells added to 96-well tissue culture plates at 20,000 cells/well.
Plates were covered and placed in a 37° C. humidified incubator with 5% CO2 overnight, to allow cells to adhere.
Coating solution was prepared: 500 l/vial PBS was added to 2 vials of anti-KDR antibody, then 1 ml solubilized anti-KDR antibody into 29.0 ml bicarbonate buffer. Coating solution was added to all wells at 150 µl/well (final amount anti-KDR=1 µg/well) and placed at 4° C. overnight.
Blocking solution (2.1 g dry milk+42 ml PBS=5% milk in PBS) was placed on a stir plate for 30 min.
Assay plates were washed twice with PBST, and 200 µl/well blocking solution was added to all wells. Assay plates were covered with plate sealers and placed in a 37° C. microplate chamber until just before cell lysate transfer.
Compound stocks were thawed or prepared in DMSO as 5 mM stocks.
Dilution medium (DM, 1% DMSO in DMEM) and compounds were diluted by half-log increments for concentration response analysis.
Conditioned media was dumped from the tissue culture plates, and plates were blotted dry.
Standard solution in DM, compound dilutions in DM, or DM (for high control, negative control, and reference wells) were added to the tissue culture plates, 25 µl/well. Each pair of tissue culture plates was prepared with the same compounds, solutions, and layout; and will be combined later; Tissue culture plates were covered and placed in the 37° C. microplate chamber for 20 min.
VEGF solution was prepared: 110 l VEGF stock+10.89 ml DM=100 ng/ml VEGF
VEGF solution or DM (for reference wells) was added to the tissue culture plates, 25 μl/well.
Tissue culture plates were covered and placed in the 37° C. microplate chamber for 10 min.
RIPA buffer was prepared (240 l NaVO3 stock+240 l PIC stock+24 l NaF stock+23.496 ml RIPA base) and added to the tissue culture plates, 50 µl/well.
Tissue culture plates were covered and placed on a Labline plate shaker for 10 min (speed about 5).
Assay plates were washed twice with PBST.
Cell lysates from matching wells of each pair of tissue culture plates were combined to =200 µl/well, and were pipetted up and down to mix. Cell lysates were transferred to the assay plates using the same layouts, 170 µl/well.
Assay plates were covered with plate sealers and placed on a Labline plate shaker for 2 hr (speed about 5).
Assay plates were washed 5 times with PBST.
Biotin antibody solution was prepared (16 l biotin antibody stock+32 ml PBST=2000× dilution) and added to the assay plates, 150 µl/well.
Assay plates were covered with plate sealers and placed on a Labline plate shaker for 90 min
Streptavidin-HRP solution was prepared (16 l streptavidin-HRP stock+32 ml PBST=2000× dilution) and added to the assay plates, 150 µl/well.
Assay plates were covered with plate sealers and placed on a Labline plate shaker for 60 min
Substrate was added to the assay plates, 100 µl/well.
As assay plates developed, the plates were each monitored on a Molecular Devices Spectramax set to 650 nm, until the signal in the high control wells was around 0.6 OD and the signal in the negative control wells was around 0.1-0.15 OD.
Stop solution was added to the assay plates, 100 µl/well.
The plates were read on a Molecular Devices Spectramax set to 450 nm.
Data was calculated by Assay Explorer, using same-plate high control wells as 0% and reference standard wells as 100% inhibition of KDR phosphorylation. IC50 values were calculated by non-linear regression analysis of the concentration response data.
Target sequence in this assay (P35968 20-1356): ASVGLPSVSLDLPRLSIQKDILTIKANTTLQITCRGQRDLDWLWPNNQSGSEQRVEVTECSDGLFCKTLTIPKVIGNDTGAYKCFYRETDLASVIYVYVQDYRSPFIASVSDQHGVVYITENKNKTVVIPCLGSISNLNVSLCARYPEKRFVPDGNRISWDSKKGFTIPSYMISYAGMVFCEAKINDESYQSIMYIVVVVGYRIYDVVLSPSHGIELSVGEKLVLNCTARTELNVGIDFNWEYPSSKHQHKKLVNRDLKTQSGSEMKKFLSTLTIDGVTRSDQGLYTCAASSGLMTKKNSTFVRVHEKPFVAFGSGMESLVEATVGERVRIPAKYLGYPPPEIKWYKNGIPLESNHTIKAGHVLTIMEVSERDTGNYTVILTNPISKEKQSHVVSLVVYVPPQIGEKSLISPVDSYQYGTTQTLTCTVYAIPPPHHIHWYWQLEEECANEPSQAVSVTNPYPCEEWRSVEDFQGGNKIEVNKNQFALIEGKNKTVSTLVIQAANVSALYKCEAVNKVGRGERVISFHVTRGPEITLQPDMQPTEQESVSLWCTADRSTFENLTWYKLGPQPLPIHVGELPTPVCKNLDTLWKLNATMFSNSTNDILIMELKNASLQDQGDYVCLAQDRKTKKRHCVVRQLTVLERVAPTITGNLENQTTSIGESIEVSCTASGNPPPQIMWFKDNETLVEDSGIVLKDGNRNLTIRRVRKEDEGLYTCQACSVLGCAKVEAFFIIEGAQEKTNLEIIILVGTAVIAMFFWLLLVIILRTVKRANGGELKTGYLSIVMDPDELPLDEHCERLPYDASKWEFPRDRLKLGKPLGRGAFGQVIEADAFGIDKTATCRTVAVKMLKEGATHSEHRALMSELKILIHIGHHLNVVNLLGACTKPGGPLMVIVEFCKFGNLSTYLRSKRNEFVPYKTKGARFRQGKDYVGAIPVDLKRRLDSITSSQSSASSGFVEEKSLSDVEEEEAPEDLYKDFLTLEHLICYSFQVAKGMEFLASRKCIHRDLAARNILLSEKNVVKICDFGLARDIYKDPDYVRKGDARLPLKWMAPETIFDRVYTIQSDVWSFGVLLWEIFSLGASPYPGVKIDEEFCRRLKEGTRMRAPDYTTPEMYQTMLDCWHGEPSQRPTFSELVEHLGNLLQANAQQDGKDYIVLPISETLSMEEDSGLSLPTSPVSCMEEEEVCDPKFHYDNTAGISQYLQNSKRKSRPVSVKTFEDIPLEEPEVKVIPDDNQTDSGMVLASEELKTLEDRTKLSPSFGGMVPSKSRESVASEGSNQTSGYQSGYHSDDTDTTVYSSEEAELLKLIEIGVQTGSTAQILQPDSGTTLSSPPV

KDR [2] = target: T3, KDR; assay: KDR HTRF in vitro kinase assay; format: biochemical; set-up: purified enzyme (His6-KDR 789-1354, MW 63 kD); His6 (N); conditions: 1 mM ATP; read-out: KDR enzyme inhibition data (Ki)
In short: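 His6-KDR 789-1354 (7 ng/well) with 0.5 μM biotinylated peptide substrate and 1 mM ATP in HEPES pH 7.1, MgCl2/MnCl2, 60 min at room temperature. EDTA-quenched, detected by streptavidin-XL-665 plus Eu-kryptate anti-phosphotyrosine HTRF after 3 h; IC50 from 620/665 nm ratio.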
Target sequence in this assay (P35968 789-1354): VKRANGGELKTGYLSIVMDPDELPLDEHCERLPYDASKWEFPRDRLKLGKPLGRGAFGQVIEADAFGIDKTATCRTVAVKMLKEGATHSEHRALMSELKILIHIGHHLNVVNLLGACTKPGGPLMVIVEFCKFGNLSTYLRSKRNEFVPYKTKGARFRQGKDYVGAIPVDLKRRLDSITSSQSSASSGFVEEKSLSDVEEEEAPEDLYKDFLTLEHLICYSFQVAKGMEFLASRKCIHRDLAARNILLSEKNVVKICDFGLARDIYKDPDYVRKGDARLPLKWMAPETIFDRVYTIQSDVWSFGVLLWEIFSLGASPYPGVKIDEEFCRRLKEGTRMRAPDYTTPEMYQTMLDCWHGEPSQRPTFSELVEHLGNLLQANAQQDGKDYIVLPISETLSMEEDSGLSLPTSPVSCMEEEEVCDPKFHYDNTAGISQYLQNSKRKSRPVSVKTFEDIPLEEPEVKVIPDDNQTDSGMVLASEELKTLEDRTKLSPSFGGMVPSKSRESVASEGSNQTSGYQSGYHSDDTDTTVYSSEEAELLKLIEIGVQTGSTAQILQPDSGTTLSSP

T1 sequence (Q96GD4 whole entry, the tested form may be a part): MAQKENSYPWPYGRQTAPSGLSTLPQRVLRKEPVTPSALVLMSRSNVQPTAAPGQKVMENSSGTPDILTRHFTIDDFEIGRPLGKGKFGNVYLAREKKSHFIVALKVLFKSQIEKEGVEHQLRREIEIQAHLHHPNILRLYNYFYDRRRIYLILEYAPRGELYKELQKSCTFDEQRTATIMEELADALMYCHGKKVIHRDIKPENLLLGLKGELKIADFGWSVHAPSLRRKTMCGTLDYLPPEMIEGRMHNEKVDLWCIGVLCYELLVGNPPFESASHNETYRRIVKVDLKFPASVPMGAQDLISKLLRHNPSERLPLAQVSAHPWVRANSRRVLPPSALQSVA
T1 sequence (Q9NQS7 826-918 partner limits assumed): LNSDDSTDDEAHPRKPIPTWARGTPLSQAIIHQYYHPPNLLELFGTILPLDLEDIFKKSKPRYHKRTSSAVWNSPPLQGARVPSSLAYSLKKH

Row | SMILES | Ki (Aurora B) [nM] | Ki (Aurora A) [nM] | IC50 (KDR [1]) [nM] | Ki (KDR [2]) [nM]
1 | Cn1cc(Nc2ncc(Cl)c(Nc3ccc4[nH]ncc4c3)n2)cn1 [Example 175, 5-chloro-N^4-(1H-indazol-5-yl)-N^2-(1-methyl-1H-pyrazol-4-yl)pyrimidine-2,4-diamine] | < 100 | < 100 | 100 to 1000 | < 100
2 | CC1(C)[C@H]2C[C@H](C(N)=O)[C@H](Nc3nc(Nc4cnn(Cc5ccccc5)c4)ncc3Cl)[C@@H]1C2 [Example 187, (1R,2R,3S,5R)-2-({2-[(1-benzyl-1H-pyrazol-4-yl)amino]-5-chloropyrimidin-4-yl}amino)-6,6-dimethylbicyclo[3.1.1]heptane-3-carboxamide] | < 100 | < 100 | 100 to 1000 | < 100
3 | NC(=O)[C@@H]1[C@H](Nc2nc(Nc3cnn(CCO)c3)ncc2C(F)(F)F)[C@H]2C=C[C@@H]1C2.NC(=O)[C@H]1[C@@H](Nc2nc(Nc3cnn(CCO)c3)ncc2C(F)(F)F)[C@@H]2C=C[C@H]1C2 (mixture of isomers) [Example 29, (1S,2S,3R,4R)-3-{[2-{[1-(2-hydroxyethyl)-1H-pyrazol-4-yl]amino}-5-(trifluoromethyl)pyrimidin-4-yl]amino}bicyclo[2.2.1]hept-5-ene-2-carboxamide and (1R,2R,3S,4S)-3-{[2-{[1-(2-hydroxyethyl)-1H-pyrazol-4-yl]amino}-5-(trifluoromethyl)pyrimidin-4-yl]amino}bicyclo[2.2.1]hept-5-ene-2-carboxamide] | 100 to 1000 | < 100 | 100 to 1000 | < 100
4 | Cn1cc(Nc2ncc(C(F)(F)F)c(Nc3cn(C)nc3C(N)=O)n2)cn1 [Example 153, 1-methyl-4-({2-[(1-methyl-1H-pyrazol-4-yl)amino]-5-(trifluoromethyl)pyrimidin-4-yl}amino)-1H-pyrazole-3-carboxamide] | < 100 | < 100 | 100 to 1000 | 100 to 1000
5 | CC1(C)[C@H]2C[C@H](C(N)=O)[C@H](Nc3nc(Nc4cnn(CCc5ccccc5)c4)ncc3Cl)[C@@H]1C2 [Example 188, (1R,2R,3S,5R)-2-[(5-chloro-2-{[1-(2-phenylethyl)-1H-pyrazol-4-yl]amino}pyrimidin-4-yl)amino]-6,6-dimethylbicyclo[3.1.1]heptane-3-carboxamide] | < 100 | < 100 | 100 to 1000 | < 100
6 | Cn1cc(Nc2ncc(Cl)c(N[C@@H]3CC=CC[C@@H]3C(N)=O)n2)cn1.Cn1cc(Nc2ncc(Cl)c(N[C@H]3CC=CC[C@H]3C(N)=O)n2)cn1 (mixture of isomers) [Example 146, (1S,6R)-6-({5-chloro-2-[(1-methyl-1H-pyrazol-4-yl)amino]pyrimidin-4-yl}amino)cyclohex-3-ene-1-carboxamide and (1R,6S)-6-({5-chloro-2-[(1-methyl-1H-pyrazol-4-yl)amino]pyrimidin-4-yl}amino)cyclohex-3-ene-1-carboxamide] | < 100 | < 100 | 100 to 1000 | 100 to 1000
7 | CCn1cc(Nc2ncc(Br)c(N[C@H]3[C@@H](C(N)=O)C[C@H]4C[C@@H]3C4(C)C)n2)cn1 [Example 183, (1R,2R,3S,5R)-2-({5-bromo-2-[(1-ethyl-1H-pyrazol-4-yl)amino]pyrimidin-4-yl}amino)-6,6-dimethylbicyclo[3.1.1]heptane-3-carboxamide] | < 100 | < 100 | 100 to 1000 | < 100
8 | Cn1cc(Nc2ncc(C(N)=O)c(NC3C4C=CC(C4)C3C(N)=O)n2)cn1 (mixture of isomers) [Example 86, 4-{[(1S,2S,3R,4R)-3-carbamoylbicyclo[2.2.1]hept-5-ene-2-yl]amino}-2-[(1-methyl-1H-pyrazol-4-yl)amino]pyrimidine-5-carboxamide and 4-{[(1R,2R,3S,4S)-3-carbamoylbicyclo[2.2.1]hept-5-ene-2-yl]amino}-2-[(1-methyl-1H-pyrazol-4-yl)amino]pyrimidine-5-carboxamide] | < 100 | < 100 | 100 to 1000 | 100 to 1000
